# Laboratory results published in patent US20100041632A1, “USES OF THE CARBOXY-AMIDO-TRIAZOLE COMPOUNDS AND SALTS THEREOF” (priority 2006, published 2010).
# Legend:
# Format in all cases: in vivo
# Kunming mice [1] = assay: Hot plate test (analgesic effect)
# Method: Kunming mice (18-22 g, female) were randomly divided into 4 groups with 20 animals per group.
# Control group with dissolvent: 10 μl PEG400 was administered (ig) twice with the interval of 24 hours. The pain intensity test was carried out 8 hours after the second administration. 200 μl N.S. was injected (sc) 5 minutes before the test.
# (§1) Morphine/PEG400 group: 10 μl PEG400 was administered (ig) twice with the interval of 24 hours. The pain intensity test was carried out 8 hours after the second administration. Morphine (2 mg/kg body weight) was injected (sc) 5 minutes before the test.
# (§2) CAI/N.S. group: CAI (20 mg/kg body weight, 2 mg/ml) was administered (ig) twice with the interval of 24 hours. The pain intensity test was carried out 8 hours after the second administration. 200 μl N.S. was injected (sc) 5 minutes before the test.
# (§3) The pain intensity test was carried out 8 hours after the second administration. Morphine (2 mg/kg body weight) was injected (sc) 5 minutes before the test.
# The mice were placed onto a hot plate (53±0.5° C.) and the latency periods (second) of hopping responses were recorded as the pain threshold index.
# TNF-α = TNF-α levels in paw tissue and serum of adjuvant arthritis rat (ELISA); details: AA rats, day 29, ELISA
# Method: Blood was collected from eve socket on day 29 and left in room temperature to allow coagulating. Then serum was separated by centrifugation at 3000 rpm for 10 min and kept in −20° C. After animals were sacrificed, the subcutaneous tissue of the right hind paw and that surrounding the tarsotibial joints was removed, broke into pieces, and placed in 5 ml normal saline (0.9%). The tissues were homogenized in a high speed homogenizer. Then the homogenate was centrifuged at 4° C. and 10,000 rpm for 15 min. The supernatants were collected and stored at −20° C. until further analysis.
# IL-1β and TNF-α levels in paw tissue and serum were measured using specific rat ELISA kits according to the manufacturer's instructions.
# Kunming mice [2] = assay: Mouse writhing test (acetic acid); details: 20 mg/kg ig for 4 days
# Method: Kunming mice (18-22 g, male) were randomly divided into several groups with 20 animals in each group.
# Control group: PEG400 was administered (ig) for 4 days, 0.1 ml/10 g body weight.
# Test groups: CAI and its analogues (compounds with structural formula of A, R1═Cl or H, R2═Cl, H, Br, CH3 or CF3, R3═Cl, Br, CF3, NO2 or CN, X═O, S or C═O; The compounds are listed in Table 6 (A1˜A10)) were administered (ig) for 4 days (20 mg/kg body weight, 2 mg/ml).
# The pain intensity test was carried out 8 hours after the last drug administration. 0.6% acetic acid (0.1 ml/10 g body weight) was injected (ip). The animals were put into a glass cylinder immediately. The writhing frequency in the following 5-15 minutes was recorded.
# Kunming mice [3] = assay: Formalin test (analgesic effect)
# Method: 320 Kunming mice (18-22 g, half male and half female) were divided into 4 groups randomly with 80 animals in each group.
# Control group with dissolvent (PEG400/N.S.): 10 μl PEG400 was administered (ig) twice with the interval of 24 hours. The pain intensity test was carried out 8 hours after the second administration. 200 μl N.S. is injected (sc) 5 minutes before the test.
# as §1, §2, §3
# 5 minutes after the morphine or N.S. injection, 20 μl 2% formalin was injected (sc) into the subplantar space of the hind paw. The animals were placed immediately in a glass cylinder hanging on a holder, with a mirror placed below with 30° slope to observe the paw responses. The pain responses of the animals with injected paws were recorded; a pain ranking was recorded as follows: 3=the injected paw is licked, bitten, or shaken; 2=the injected paw is elevated and is not in contact with any other surface; 1=the injected paw has little or no weight on it; 0=the injected paw is not favored. The duration of each of the 4 behavioral categories was recorded. The observation lasted for 15 minutes. A pain intensity score was calculated by multiplying the amount of time spent in each category by its assigned category score and adding these products together.
structure (smiles),measurement,setting,value
"NC(=O)c1nnn(Cc2cc(Cl)c(C(=O)c3ccc(Cl)cc3)c(Cl)c2)c1N [CAI, 5-amino-1-[3,5-dichloro-4-(4-chlorobenzoyl chloride)benzyl]-1H-1,2,3-triazole-4-carboxamide]","Pain threshold (sec, mean ± std)","Kunming mice [1]; hot plate 53±0.5° C., latency of hopping response, CAI 20 mg/kg ig twice, morphine 2 mg/kg sc",19.9 ± 6.2 s
same,Analgesic effect in hot plate test (in words),Kunming mice [1]; two-factor ANOVA,neither have obvious analgesic effect alone
same,TNF-α levels in paw tissue and serum (in words),TNF-α,significantly reduced
same,Analgesic effect in writhing test (in words),Kunming mice [2],obvious analgesic effect
same,Writhing frequency mean ± std,"Kunming mice [2]; 0.6% acetic acid ip, writhing in following 5-15 minutes",8.1 ± 2.3
same,Pain intensity score (mean ± std),"Kunming mice [3]; 2% formalin sc hind paw, 15 minutes observation, CAI 20 mg/kg ig twice, morphine 2 mg/kg sc",1007 ± 255
same,Analgesic effect in formalin test (in words),Kunming mice [3]; pain scores compared with the control group,decrease significantly
